Measurements from patent US9765075B2, “Substituted bridged urea analogs as sirtuin modulators” (GLAXOSMITHKLINE LLC, priority 2013, dated 2017).
Changes are numbered by the printed parent chain. Where a name gives a salt, the structure may show the parent alone.

Legend:
Assay in all cases: SIRT1 inhibition assay, OAcADPr mass spectrometry
Type in all cases: biochemical
[1] = biological target: T1, full-length hSIRT1 T219A (Homo sapiens, UniProt Q96EB6, T219A)
T1 construct: The following point mutants of full-length hSIRT1 were generated; His6 (C); made in house
T1 sequence (Q96EB6 1-747 T219A): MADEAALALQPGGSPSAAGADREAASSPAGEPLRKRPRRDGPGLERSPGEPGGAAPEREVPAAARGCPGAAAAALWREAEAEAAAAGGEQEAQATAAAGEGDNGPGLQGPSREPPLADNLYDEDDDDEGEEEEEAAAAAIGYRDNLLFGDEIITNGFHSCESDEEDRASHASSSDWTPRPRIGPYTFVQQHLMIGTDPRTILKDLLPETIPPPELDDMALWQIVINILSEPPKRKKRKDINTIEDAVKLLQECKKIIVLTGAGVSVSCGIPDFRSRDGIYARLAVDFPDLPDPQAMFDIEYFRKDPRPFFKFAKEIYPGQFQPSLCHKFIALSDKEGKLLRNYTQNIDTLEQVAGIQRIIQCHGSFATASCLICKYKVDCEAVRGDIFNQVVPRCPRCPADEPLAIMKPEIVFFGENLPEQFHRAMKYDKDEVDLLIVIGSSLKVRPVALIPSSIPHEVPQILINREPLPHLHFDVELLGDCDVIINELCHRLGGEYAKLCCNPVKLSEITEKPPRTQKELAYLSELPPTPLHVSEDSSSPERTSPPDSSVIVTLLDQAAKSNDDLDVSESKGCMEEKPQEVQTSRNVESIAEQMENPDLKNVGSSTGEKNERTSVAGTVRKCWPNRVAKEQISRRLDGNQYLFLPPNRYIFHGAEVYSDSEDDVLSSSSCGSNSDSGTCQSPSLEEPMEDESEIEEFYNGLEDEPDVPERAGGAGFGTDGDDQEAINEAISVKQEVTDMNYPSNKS
Protocol: (§1) SIRT1 activation and inhibition assays were run in reaction buffer with 0.05% BSA at 25° C. and analyzed using the OAcADPr assay. Enzyme and compound were pre-incubated for 20 minutes before addition of substrates.

[2] = biological target: T2, full-length hSIRT1 I223A (Homo sapiens, UniProt Q96EB6, I223A)
T2 construct: The following point mutants of full-length hSIRT1 were generated; His6 (C); made in house
T2 sequence (Q96EB6 1-747 I223A): T1 sequence (Q96EB6 1-747 T219A) with A219T, I223A
Protocol: as §1

[3] = biological target: T3, full-length hSIRT1 E230A (Homo sapiens, UniProt Q96EB6, E230A)
T3 construct: His6 (C); made in house
T3 sequence (Q96EB6 1-747 E230A): T1 sequence (Q96EB6 1-747 T219A) with A219T, E230A
Protocol: as §1

## CCCC[C@H](NC(=O)[C@H](CC(C)C)NC(=O)[C@H](CCCCNC(=O)C(F)(F)F)NC(=O)[C@H](CCCCN)NC(=O)[C@H](Cc1c[nH]cn1)NC(=O)[C@H](CCCNC(=N)N)NC(C)=O)C(=O)N[C@@H](Cc1ccccc1)C(N)=O [TFA-p53 7-mer, Ac-RHK-K^TFA-L-Nle-F-NH2]
[1]
  IC50: 490 ± 20 nM
[2]
  IC50: 540 ± 150 nM
[3]
  IC50: 1300 ± 400 nM
